Measurements as given in patent publication US20250091989A1, “SMALL MOLECULE PROTEIN SYNTHESIS MODULATORS” (Interdict Bio, Inc., priority 2023, published 2025).

Assays:
Assay type in all cases: biochemical
Settings in all cases: HeLa S3 lysate, sfGFP/mCherry ratio, 2 hrs at 30° C.
[1] = tested on: ALK; experiment: In vitro transcription-translation (IVTT) reporter assay, ALK test sequence
Source text: (§1) All reporter constructs have been cloned into the pT7CFE1-CHis plasmid (ThermoFisher #88860) using Gibson assembly procedures (NEB #E2611L). The parental pT7CFE1-CHis plasmid contains an EMCV IRES at the 5′UTR for translation initiation, a multiple-cloning site (MCS) for gene insertion, an optional C-terminal His-epitope tag, and polyA sequence in the 3′UTR to regulate mRNA stability. All reporters are designed to be inserted at the MCS to include a red fluorescent protein (mCherry), P2A self-cleaving peptide which releases the preceding mCherry protein product, and a fusion open reading frame containing a 3×FLAG epitope, a peptide sequence of interest (TEST), and green fluorescent protein (sfGFP).
(§2) Construct Plasmid Preparation: All plasmids are isolated from MACH1 cells (ThermoFisher) grown overnight in ampicillin-containing luria broth, and purified using ZymoPure Express Plasmid Midiprep Kit (Zymo Research). Constructs are sequenced verified and diluted to a working concentration of 110 ng/μL.
(§3) HeLa S3 Lysate Preparation: HeLa S3 cell pellets are acquired from Ipracell/Ipratech (Belgium) and shipped as 4 mL frozen cell pellets on dry ice for storage at −80° C. until use. The procedure for lysate preparation is as follows. Prepare 1× Lysis Buffer, cold and stored on ice:
(§4) Each preparation takes 8 cell pellets (4 ml packed volume each, approximately 1.0×10^9 cells per pellet). Thaw cell pellets from −80° C. on ice for 90 mins. Lay pellets horizontally on top of the ice and rotate every 30 mins to ensure even thawing. Once thawed, add 4 mL of cold lysis buffer to each pellet, and using a serological pipet, gently pipet up and down to break up clumps. Incubate resuspended cells in ice for an additional 30 mins (plunged into ice). During 30 min incubation, rinse and RNase-zap (Ambion) glass dounces (use loose pestle “A”), gently dry and place on ice until needed. Prepare RNase-free Eppendorf tubes for spinning and for batch storage. Add batch labels to 1.5-1.7 mL RNase-free microcentrifuge tubes (labeling scheme below). Each batch will have an extra 1.5-1.7 mL RNase-free microcentrifuge tube for 40 μL of lysate, label the top of this tube (labeling scheme below). After 30 min incubation, transfer all 8 mL of cell pellet to dounce. Cell lysis is complete after douncing 100 times. Aliquot cell lysis into 1.5-1.7 mL temporary-microcentrifuge tubes. Place tubes in centrifuge with “fins” out, and spin at 1,200 xg for 5 mins. After the first spin use a 1 mL pipet to resuspend each tube and repeat spin. This acts as an additional lysis step, is more vigorous and increases lysate yield. During second spin get liquid N2 and a fresh conical tube on ice.
(§5) After spin is complete, transfer supernatant (lysate) from microcentrifuge tubes into the 50 mL conical tube and keep on ice. Repeat steps 10-14 for all other cell pellets until completed. Once all cell lysate has been transferred to the 50 mL conical tube pipet to mix so the solution is homogenous. Transfer 1 mL of lysate into batch-labeled microcentrifuge tubes and flash freeze in liquid nitrogen. Be sure to pipet up and down to mix throughout transfer step. Place all tubes in the […] for long-term storage.
(§6) In vitro transcription-translation assay setup: Each assay includes a master mix containing lysate and shared components, a 96-well plate containing compound titrations for testing, a 96-well DNA plate with reporter constructs to be tested, 96-well skirted PCR plates, and 96-well flat-bottom, black, fluorescent assay plates. […]

[2] = tested on: MYC; experiment: In vitro transcription-translation (IVTT) reporter assay, MYC test sequence
Source text: as §1, §2, §3, §4, §5, §6

[3] = tested on: KRAS G12D; experiment: In vitro transcription-translation (IVTT) reporter assay, KRAS G12D test sequence
Source text: as §1, §2, §3, §4, §5, §6

Row | Structure (SMILES) | IC50 [1] | IC50 [2] | IC50 [3]
1 | COc1ccc(C[C@H]2NC[C@H](O)[C@H]2OC(=O)[C@@H]2CN(Cc3ccccc3)CC23CNC3)cc1 [V186717, (2R,3S,4S)-4-hydroxy-2-[(4-methoxyphenyl)methyl]pyrrolidin-3-yl (8S)-6-benzyl-2,6-diazaspiro[3.4]octane-8-carboxylate] | > 30 µM | > 30 µM | 
2 | COc1ccc(C[C@H]2NC[C@H](O)[C@H]2OC(=O)[C@H]2CC[C@@H](O)CC2)cc1 [V186823, (2R,3S,4S)-4-hydroxy-2-[(4-methoxyphenyl)methyl]pyrrolidin-3-yl (1 s,4 s)-4-hydroxy cyclohexane-1-carboxylate] | 20 to 30 µM | > 30 µM | 
3 | COc1ccc(C[C@H]2NC[C@H](O)[C@H]2OC(=O)CCn2ccc(=O)[nH]c2=O)cc1 [V186992, (2R,3S,4S)-4-hydroxy-2-[(4-methoxyphenyl)methyl]pyrrolidin-3-yl 3-(2,4-dioxo-3H-pyrimidin-1-yl)propanoate] | < 10 µM | < 10 µM | 
4 | COc1ccc(C[C@H]2NC[C@H](O)[C@H]2OC(=O)Cc2nccs2)cc1 [V187052, (2R,3S,4S)-4-hydroxy-2-[(4-methoxyphenyl)methyl]pyrrolidin-3-yl 2-(1,3-thiazol-2-yl)acetate; trifluoroacetic acid] | < 10 µM | < 10 µM | 
5 | COc1ccc(C[C@H]2NC[C@H](O)[C@H]2OC(=O)CCc2ccccc2)cc1 [V187069, (2R,3S,4S)-4-hydroxy-2-[(4-methoxyphenyl)methyl]pyrrolidin-3-yl 3-phenylpropanoate] | < 10 µM | < 10 µM | 
6 | COc1ccc(C[C@H]2NC[C@H](O)[C@H]2OC(=O)Cc2ccc(CC(C)C)cc2)cc1 [V187182, (2R,3S,4S)-4-hydroxy-2-[(4-methoxyphenyl)methyl]pyrrolidin-3-yl 2-[4-(2-methylpropyl)phenyl]acetate; trifluoroacetic acid] | 10 to 20 µM | > 30 µM | 
7 | CC(=O)O[C@@H]1[C@@H](O)CN[C@@H]1Cc1ccc(OC(F)(F)F)cc1 [V187185, (2R,3S,4S)-4-hydroxy-2-{[4-(trifluoromethoxy)phenyl]methyl}pyrrolidin-3-yl acetate] |  | < 10 µM | 
8 | O=C(CC[C@@H]1CCCN1)O[C@@H]1[C@@H](O)CN[C@@H]1Cc1ccc(-c2cncs2)cc1 [V192842, (2R,3S,4S)-4-hydroxy-2-{[4-(1,3-thiazol-5-yl)phenyl]methyl}pyrrolidin-3-yl 3-[(2S)-pyrrolidin-2-yl]propanoate] |  | < 10 µM | 
9 | O=C(Cc1cccc(F)c1)O[C@@H]1[C@@H](O)CN[C@@H]1Cc1ccc(-c2cncs2)cc1 [V192844, (2R,3S,4S)-4-hydroxy-2-{[4-(1,3-thiazol-5-yl)phenyl]methyl}pyrrolidin-3-yl 2-(3-fluorophenyl)acetate] |  | < 10 µM | 
10 | COc1ccc(C[C@H]2NC[C@H](O)[C@H]2OC(=O)CC[C@@H]2CCCN2)cc1 [V192931, (2R,3S,4S)-4-hydroxy-2-[(4-methoxyphenyl)methyl]pyrrolidin-3-yl 3-[(2S)-pyrrolidin-2-yl]propanoate] |  | < 10 µM | 
11 | CC(=O)O[C@@H]1[C@@H](O)CN[C@@H]1Cc1ccc(-c2cnco2)cc1 [V192987, (2R,3S,4S)-4-hydroxy-2-{[4-(1,3-oxazol-5-yl)phenyl]methyl}pyrrolidin-3-yl acetate] |  | < 10 µM | 
12 | O=C(C[C@@H]1CCNC1)O[C@@H]1[C@@H](O)CN[C@@H]1Cc1ccc(C(F)F)cc1 [V193046, (2R,3S,4S)-2-{[4-(difluoromethyl)phenyl]methyl}-4-hydroxypyrrolidin-3-yl 2-[(3S)-pyrrolidin-3-yl]acetate] |  | < 10 µM | 

Other lines, results leading:

Row | IC50 [1] | IC50 [2] | IC50 [3] | Structure (SMILES)
13 | > 30 µM | > 30 µM |  | COc1ccc(C[C@H]2NC[C@H](O)[C@H]2OC(=O)c2ccc(F)c(S(=O)(=O)N(C)C)c2)cc1 [V000196, (2R,3S,4S)-4-hydroxy-2-[(4-methoxyphenyl)methyl]pyrrolidin-3-yl 3-(dimethylsulfamoyl)-4-fluorobenzoate]
14 | > 30 µM | > 30 µM |  | COc1ccc(C[C@H]2NC[C@H](O)[C@H]2OC(=O)CC[C@H]2CNCCN2)cc1 [V041828, (2R,3S,4S)-4-hydroxy-2-[(4-methoxyphenyl)methyl]pyrrolidin-3-yl 3-[(2S)-piperazin-2-yl]propanoate]
15 |  |  | > 30 µM | CCCC(CCC)C(=O)O[C@@H]1[C@@H](O)CN[C@@H]1Cc1ccc(OC)cc1 [V186780]
16 | > 30 µM | > 30 µM |  | COc1ccc(C[C@H]2NC[C@H](O)[C@H]2OC(=O)C2(N)CCCC2)cc1 [V186782, (2R,3S,4S)-4-hydroxy-2-[(4-methoxyphenyl)methyl]pyrrolidin-3-yl 1-aminocyclopentane-1-carboxylate]
17 | > 30 µM | > 30 µM |  | COc1ccc(C[C@H]2NC[C@H](O)[C@H]2OC(=O)CC[C@H]2CN(C)CCN2C)cc1 [V186854, (2R,3S,4S)-4-hydroxy-2-[(4-methoxyphenyl)methyl]pyrrolidin-3-yl 3-[(2S)-1,4-dimethylpiperazin-2-yl]propanoate; trifluoroacetic acid]
18 | < 10 µM | < 10 µM |  | CC(=O)O[C@@H]1[C@@H](O)CN[C@@H]1Cc1ccc(-c2nn[nH]n2)cc1 [V187008, (2R,3S,4S)-4-hydroxy-2-{[4-(2H−1,2,3,4-tetrazol-5-yl)phenyl]methyl}pyrrolidin-3-yl acetate; trifluoroacetic acid]
19 | < 10 µM | < 10 µM |  | COc1ccc(C[C@H]2NC[C@H](O)[C@H]2OC(=O)Cc2cccs2)cc1 [V187050, (2R,3S,4S)-4-hydroxy-2-[(4-methoxyphenyl)methyl]pyrrolidin-3-yl 2-(thiophen-2-yl)acetate]
20 | < 10 µM | < 10 µM |  | COc1ccc(C[C@H]2NC[C@H](O)[C@H]2OC(=O)CCc2cn(C)cn2)cc1 [V187096, (2R,3S,4S)-4-hydroxy-2-[(4-methoxyphenyl)methyl]pyrrolidin-3-yl 3-(1-methylimidazol-4-yl)propanoate; trifluoroacetic acid]
21 | < 10 µM | < 10 µM |  | COc1ccc(C[C@H]2NC[C@H](O)[C@H]2OC(=O)Cc2ccc(N3CCOCC3)cc2)cc1 [V187134, (2R,3S,4S)-4-hydroxy-2-[(4-methoxyphenyl)methyl]pyrrolidin-3-yl 2-[4-(morpholin-4-yl)phenyl]acetate]
22 | < 10 µM | 20 to 30 µM |  | COc1ccc(C[C@H]2NC[C@H](O)[C@H]2OC(=O)Cn2cnnc2)cc1 [V187181, (2R,3S,4S)-4-hydroxy-2-[(4-methoxyphenyl)methyl]pyrrolidin-3-yl 2-(1,2,4-triazol-4-yl)acetate]
23 |  | < 10 µM |  | O=C(CC1CC(F)(F)C1)O[C@@H]1[C@@H](O)CN[C@@H]1Cc1ccc(-c2cnco2)cc1 [V192387, (2R,3S,4S)-4-hydroxy-2-{[4-(1,3-oxazol-5-yl)phenyl]methyl}pyrrolidin-3-yl 2-(3,3-difluorocyclobutyl)acetate]
24 |  | < 10 µM |  | O=C(CC1CC(F)(F)C1)O[C@@H]1[C@@H](O)CN[C@@H]1Cc1ccc(-c2cncs2)cc1 [V192840, (2R,3S,4S)-4-hydroxy-2-{[4-(1,3-thiazol-5-yl)phenyl]methyl}pyrrolidin-3-yl 2-(3,3-difluorocyclobutyl)acetate]
25 |  | < 10 µM |  | O=C(CC[C@@H]1CCCN1)O[C@@H]1[C@@H](O)CN[C@@H]1Cc1ccc(-c2cnco2)cc1 [V192841]
26 |  | < 10 µM |  | O=C(Cc1cccc(F)c1)O[C@@H]1[C@@H](O)CN[C@@H]1Cc1ccc(-c2cnco2)cc1 [V192843, (2R,3S,4S)-4-hydroxy-2-{[4-(1,3-oxazol-5-yl)phenyl]methyl}pyrrolidin-3-yl 2-(3-fluorophenyl)acetate]
27 |  | < 10 µM |  | O=C(C[C@@H]1CCNC1)O[C@@H]1[C@@H](O)CN[C@@H]1Cc1ccc(-c2cnco2)cc1 [V193047, (2R,3S,4S)-4-hydroxy-2-{[4-(1,3-oxazol-5-yl)phenyl]methyl}pyrrolidin-3-yl 2-[(3S)-pyrrolidin-3-yl]acetate]
